According to PubChem BioAssay (NCI):
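Briefly, cells in 96-well plates were exposed to five compound concentrations for 48 h, and endpoints were estimated by linear interpolation. The concentration for full growth arrest is given as TGI.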

Assays:
Assay in all cases: NCI anticancer screen, dose series, 48 h
[1] = tested on: SK-MEL-5 melanoma
[2] = tested on: OVCAR-3 ovarian
[3] = tested on: NCI-H23 lung
[4] = tested on: CAKI-1 renal
[5] = tested on: HL-60(TB) leukemia
[6] = tested on: M19-MEL melanoma
[7] = tested on: HCT-15 colon
[8] = tested on: K-562 leukemia
[9] = tested on: XF 498 CNS
[10] = tested on: MOLT-4 leukemia
[11] = tested on: SK-MEL-2 melanoma
[12] = tested on: TK-10 renal
[13] = tested on: DMS 273 small cell lung
[14] = tested on: OVCAR-8 ovarian
[15] = tested on: HCT-116 colon
[16] = tested on: HOP-18 NSCLC
[17] = tested on: RPMI-8226 leukemia
[18] = tested on: RXF 393 renal
[19] = tested on: A549 NSCLC
[20] = tested on: SR leukemia
[21] = tested on: LXFL 529 NSCLC
[22] = tested on: HOP-62 NSCLC
[23] = tested on: SF-295 CNS
[24] = tested on: DMS 114 small cell lung
[25] = tested on: NCI-H522 lung
[26] = tested on: CCRF-CEM leukemia
[27] = tested on: SF-539 CNS
[28] = tested on: SF-268 CNS
[29] = tested on: HOP-92 NSCLC
[30] = tested on: NCI-H460 lung
[31] = tested on: UACC-62 melanoma
[32] = tested on: EKVX NSCLC
[33] = tested on: COLO 205 colon
[34] = tested on: SNB-19 CNS
[35] = tested on: SK-OV-3 ovarian
[36] = tested on: IGROV1 ovarian
[37] = tested on: KM12 colon
[38] = tested on: SN12C renal
[39] = tested on: SW-620 colon
[40] = tested on: 786-0 renal
[41] = tested on: MALME-3M melanoma
[42] = tested on: UACC-257 melanoma
[43] = tested on: ACHN renal
[44] = tested on: DLD-1 colon
[45] = tested on: HT29 colon
[46] = tested on: LOX IMVI melanoma
[47] = tested on: SK-MEL-28 melanoma
[48] = tested on: NCI-H226 lung
[49] = tested on: RXF-631 renal
[50] = tested on: SNB-78 CNS
[51] = tested on: OVCAR-5 ovarian
[52] = tested on: HCC-2998 colon
[53] = tested on: OVCAR-4 ovarian
[54] = tested on: A498 renal
[55] = tested on: SNB-75 CNS
[56] = tested on: KM20L2 colon
[57] = tested on: UO-31 renal
[58] = tested on: U251 CNS
[59] = tested on: M14 melanoma

O=c1c(-c2ccccc2)c2oc(c1-c1ccccc1)CS(=O)(=O)CCC2
TGI [1]: 85 µM | TGI [2]: 73 µM | TGI [3]: 38.9 µM | TGI [4]: 96.9 µM | TGI [5]: > 100 µM | TGI [6]: 30.7 µM | TGI [7]: 32.9 µM | TGI [8]: > 100 µM | TGI [9]: 24.7 µM | TGI [10]: > 100 µM | TGI [11]: > 100 µM | TGI [12]: > 100 µM | TGI [13]: 58.3 µM | TGI [14]: > 100 µM | TGI [15]: 26.3 µM | TGI [16]: > 100 µM | TGI [17]: > 100 µM | TGI [18]: 29.5 µM | TGI [19]: > 100 µM | TGI [20]: > 100 µM | TGI [21]: 33.7 µM | TGI [22]: > 100 µM | TGI [23]: > 100 µM | TGI [24]: > 100 µM | TGI [25]: 22.7 µM | TGI [26]: > 100 µM | TGI [27]: 42.4 µM | TGI [28]: 83.3 µM | TGI [29]: > 100 µM | TGI [30]: > 100 µM | TGI [31]: 54.3 µM | TGI [32]: > 100 µM | TGI [33]: 42.1 µM | TGI [34]: > 100 µM | TGI [35]: > 100 µM | TGI [36]: > 100 µM | TGI [37]: > 100 µM | TGI [38]: 44.2 µM | TGI [39]: > 100 µM | TGI [40]: 44.1 µM | TGI [41]: > 100 µM | TGI [42]: > 100 µM | TGI [43]: > 100 µM | TGI [44]: 58.8 µM | TGI [45]: 75.8 µM | TGI [46]: 45.8 µM | TGI [47]: 38.3 µM | TGI [48]: 80.9 µM

CCSC(SCC)c1cc2c(cc1Br)OCO2
TGI [1]: 38.4 µM | TGI [2]: 57.3 µM | TGI [3]: 88.9 µM | TGI [5]: 38 µM | TGI [6]: > 100 µM | TGI [7]: > 100 µM | TGI [49]: 73.7 µM | TGI [8]: 32.7 µM | TGI [9]: 59.4 µM | TGI [10]: 42.2 µM | TGI [11]: 51.9 µM | TGI [12]: > 100 µM | TGI [50]: > 100 µM | TGI [13]: 20.1 µM | TGI [14]: > 100 µM | TGI [15]: 82.6 µM | TGI [51]: > 100 µM | TGI [52]: 67.5 µM | TGI [17]: 60.3 µM | TGI [53]: > 100 µM | TGI [18]: 89.3 µM | TGI [19]: > 100 µM | TGI [22]: > 100 µM | TGI [23]: 72.1 µM | TGI [24]: 50.4 µM | TGI [25]: > 100 µM | TGI [26]: 62.4 µM | TGI [27]: 35.5 µM | TGI [28]: > 100 µM | TGI [29]: 55.3 µM | TGI [30]: 49.4 µM | TGI [54]: 86.7 µM | TGI [31]: > 100 µM | TGI [32]: > 100 µM | TGI [33]: 59.3 µM | TGI [34]: > 100 µM | TGI [35]: 88.6 µM | TGI [55]: 62.9 µM | TGI [36]: > 100 µM | TGI [37]: > 100 µM | TGI [38]: > 100 µM | TGI [39]: > 100 µM | TGI [40]: > 100 µM | TGI [56]: 64.7 µM | TGI [43]: > 100 µM | TGI [44]: > 100 µM | TGI [45]: 44.8 µM | TGI [57]: 85.3 µM | TGI [58]: 32.9 µM | TGI [46]: 38 µM | TGI [47]: > 100 µM | TGI [48]: 81.1 µM | TGI [59]: 56.2 µM
